Data: PMC4640567, “Cinnamic Acid Bornyl Ester Derivatives from Valeriana wallichii Exhibit Antileishmanial In Vivo Activity in Leishmania major-Infected BALB/c Mice” (PLoS ONE, 2015)

Legend:
[1] = tested on: L. donovani promastigotes; experiment: MTT assay, L. donovani (AG83) promastigotes; type: cell-based; conditions: Leishmania donovani, tested at 10, 50, 100 μM, read-out: Cytotoxicity (μM) L. donovani promastigotes (IC50)
Method: L. donovani promastigotes (strain: MHOM/IN/1983/AG83) were obtained from the Indian Institute of Chemical Biology, Kolkata, India. Promastigotes were cultured in Schneider’s insect medium (Sigma-Aldrich Co., St. Louis, USA) as described elsewhere.
Antiparasitic activities of compounds 1 and 2 dissolved in dimethyl sulfoxide (DMSO, E. Merck, India) against L. donovani (AG83) promastigotes were determined by a quantitative colorimetric assay using the 3-(4, 5- dimethylthiazol-2-yl)-2, 5-diphenyl tetrazolium bromide (MTT) (Sisco Research Laboratory, Mumbai, India) test as described elsewhere. The compounds were tested at concentrations of 10 μM, 50 μM, and 100 μM and IC50 values (concentration of compound, which inhibited at least 50% cell metabolic activity) for each compound were determined from respective dose–response curves using Origin 5.0 software (Microcal Software, Inc., Northampton, MA, USA).

L. major promastigotes = experiment: Transmission electron microscopy, mitochondrial swelling; type: cell-based, Leishmania major; conditions: 100 μM, 2 h
Method: L. major parasites harvested from blood agar cultures were washed twice with Dulbecco’s phosphate-buffered saline (DPBS; Invitrogen, Darmstadt, Germany) and centrifuged at 3.000 × g for 10 min. The pellet was suspended in RPMI 1640 medium at a final concentration of 1 × 10^8 cells/ml. Cells were treated with 1% DMSO, 122.7 μM miltefosine (1-hexadecylphorylcholine; apoptosis inducer), or 100 μM of the tested compounds 1 and 2 in a final volume of 200 μl in 96 well plates. Samples were incubated at 27°C in 5% CO2 for several time points between 30 min and 24 h. Transmitted light microscopic, transmission electron microscopic (TEM), and flow cytometric techniques were used to find phenotypic patterns caused by the treatment with the tested compounds.
L. major promastigotes were incubated for 2 h in the presence of DMSO, 100 μM of compound 1 and compound 2, respectively. After the incubation period, the parasites were harvested, contrasted and embedded following the procedure described previously. Ultrathin sections were mounted on 300-mesh grids, stained with uranyl acetate and lead citrate, and analyzed with an EM 10 transmission electron microscope (Carl Zeiss AG, Oberkochen, Germany). To describe morphological changes in a statistical manner, six photographs with approximately 50 cells were taken and the percentage of cells with swollen mitochondria per treatment was determined.

[2] = AlamarBlue cytotoxicity, HEK 293 T cells; type: cell-based; conditions: human
Method: BMDM were generated in complete RPMI medium as described previously. On day six, the cytotoxicity against 2 × 10^5 cells/ml was tested at increasing concentrations of compounds 1 and 2 for 48 h. Human embryonic kidney HEK 293 T cells (ATCC, Wesel, Germany) were cultured in Dulbecco´s Modified Eagle Medium (DMEM) (Life Technologies, Darmstadt, Germany), with 10% FCS (PAA Laboratories, Germany). According to the standard operating procedures (SOP) within the Collaborative Research Center 630 (SFB 630) 2 × 10^4 HEK 293 T cells/ml were tested at increasing concentrations of compounds 1 and 2 for 48 h. Human liver carcinoma HepG2 cells (ATCC) were cultured in RPMI medium (Gibco) with 10% FCS. 1 × 10^5 cells/ml HepG2 were tested at increasing concentrations of 1 and 2 for 72 h according to the SOPs. The AlamarBlue assay was performed as described above for L. major parasites.

L. major = experiment: In vivo antileishmanial activity in L. major-infected BALB/c mice
Method: Female BALB/c mice (11 per group; three groups in total) were infected with 2 × 10^5 L. major promastigotes in 30 μL phosphate-buffered saline (PBS) into the right hind footpad under isoflurane inhalation anaesthesia using the UniVet Porta system (Groppler, Deggendorf, Germany). The clinical manifestation of L. major infection was monitored twice a week by determination of the body weight (g) and footpad size (mm) of the infected (iFP) and the non-infected footpad (niFP) serving as negative control. The footpad swelling describes the difference in mm between the iFP and niFP of individual mice. Three weeks post infection (p.i.) the mice were randomly divided into three groups of 11 for different treatment regimens. On day 21, 25, and 28 p.i. the respective groups were either left untreated, treated intraperitoneally (i.p.) with 100 μl of solvent (infected, 50% DMSO/PBS) or 100 μl 50 mg/kg/day of compound 2 in 50% DMSO/PBS. This high dose of compound 2 was chosen to identify its antileishmanial in vivo efficacy in L. major-infected BALB/c mice. The close monitoring of body weight and footpad swelling was continued until the end of experiment. On day 35 p.i. mice were sacrificed by CO2 inhalation and single cell suspensions from the iFP, draining popliteal lymph nodes (pLN) and spleens were obtained. The parasite burden was determined by limiting dilution assays as described previously. It was not necessary to apply any analgesics or anaesthetics during the animal trials.

[3] = 50 mg/kg/day i.p. days 21, 25, 28, day 35 p.i.

SMILES | IC50 [1] | Counted parasites with mitochondrial swelling (TEM) (L. major promastigotes) | IC50 at 48 h [2] | Side effects in vivo (L. major; 50 mg/kg/day i.p. days 21, 25, 28) | Parasite burden in the spleen (LDA) (L. major; [3]) | Reduction of parasite burden within the infected footpads (LDA) (L. major; [3]) | Reduction of parasite burden within the popliteal lymph nodes (LDA) (L. major; [3]) | Body weight of infected mice (L. major; 50 mg/kg/day i.p. on days 21, 25, 28 p.i., during the treatment regimen) | Footpad swelling (difference between infected and non-infected footpad) (L. major; 50 mg/kg/day i.p. on days 21, 25, 28 p.i., vs untreated or solvent control-treated mice)
CC1(C)C2CCC1(C)C(OC(=O)C=Cc1ccccc1)C2 (single isomer, unassigned; (-)) [Compound 1, (-)-Bornyl cinnamate] | 15.6 µM | 39% | 83.1 µM | – | – | – | – | – | –
CC1(C)C2CCC1(C)C(OC(=O)CCc1ccccc1)C2 (single isomer, unassigned; (-)) [Compound 2, (-)-bornyl 3-phenylpropionate] | > 100 µM | 36% | > 100 µM | did not have any strong side effects | only numerically reduced | ~ 100 fold | ~ 10.000 fold | not affected | reduced footpad swelling
